Patent publication US4361511A, “Benzodiazepine derivatives” (Hoffmann-La Roche Inc., priority 1980, dated 1982)

Key:
[1] = system: adrenalectomised rats treated with aldosterone; assay: aldosterone-antagonistic activity in adrenalectomised rats (urine volume, sodium and potassium excretion over 3 hours); assay type: in vivo, Female Holtzmann rats; details: for (K+) potassium excretion in %, based on control animals / (Na+) sodium excretion in %, based on control animals / Volume (urine volume) in %, based on control animals: 1 mg/kg p.o., aldosterone 4 mmg/kg s.c. 30 min later, vs animals treated only with aldosterone, urine collected 3 h
Protocol: If compounds of formula I are administered to the animals before the treatment with aldosterone, then there is observed, in comparison to animals treated only with aldosterone (control animals), a pronounced increase of the sodium excretion (i.e. the sodium retention caused by aldosterone is antagonised), whereas the potassium excretion and the urine volume are influenced to a lesser extent.
The standard experiment is carried out as follows:
Female Holtzmann rats (150-180 g) are bilaterally adrenalectomised 70 to 74 hours before the beginning of the experiment. After the operation, the animals receive a customary rat dry feed and 0.9 percent sodium chloride solution for drinking. 16 to 17 hours before the beginning of the experiment the feed is removed from the animals, but they can subsequently drink, as before, 0.9 percent sodium chloride solution ad libitum. At the beginning of the experiment the substance to be tested as an aldosterone-antagonist is administered to the animals by means of a stomach probe. 30 minutes later the animals receive a subcutaneous injection of 4 mmg/kg of aldosterone. After a further 90 minutes, the urinary bladders of the animals are emptied by careful suprapubic pressure, whereupon the animals are placed individually in metabolic cages without food and without drink. The urine of the animals is then collected for 3 hours, whereupon their urinary bladders are once more emptied. The spontaneously excreted urine and the remaining urine obtained at the conclusion of the experiment by pressing-out the urinary bladders are collected in graduated centrifuge glasses. Sodium and potassium concentrations in the urine are determined with a flame photometer.
(§1) The following Table contains results obtained in the previously described experiment with representative compounds of formula I. In this Table there are given for each compound in question the dosage administered (in mg/kg p.o.) as well as the percentage variation in the urine volume), the sodium excretion and the potassium excretion in comparison with the control animals (i.e. in comparison with the animals treated only with aldosterone). Moreover, the Table contains data relating to the acute toxicity of the compounds investigated (LD 50 in mg/kg in the case of a single oral administration to mice).

[2] = acute toxicity, single oral administration to mice; details: mouse, in vivo
From the text: as §1

[3] = in comparison to untreated animals

CN(C)C(=O)Nc1c(Cl)cc2c(c1Cl)C(c1ccccc1F)=NCC(=O)N2C [Example 4, 3-[6,8-dichloro-5-(o-fluorophenyl)-2,3-dihydro-1-methyl-2-oxo-1H-1,4-benzodiazepin-7-yl]-1,1-dimethylurea]
(K+) potassium excretion in %, based on control animals [1]: 160% | (Na+) sodium excretion in %, based on control animals [1]: 330% | Volume (urine volume) in %, based on control animals [1]: 152% | LD50 [2]: 2500 mg/kg

CN1C(=O)CN=C(c2ccccc2F)c2c1cc(Cl)c(NC(=O)N1CCN(CCO)CC1)c2Cl [Example 5, N-[6,8-dichloro-5-(o-fluorophenyl)-2,3-dihydro-1-methyl-2-oxo-1H-1,4-benzodiazepin-7-yl]-4-(2-hydroxyethyl)-1-piperazinecarboxamide]
(K+) potassium excretion in %, based on control animals [1]: 120% | (Na+) sodium excretion in %, based on control animals [1]: 300% | Volume (urine volume) in %, based on control animals [1]: 173% | LD50 [2]: > 5000 mg/kg

CN1C(=O)CN=C(c2ccccc2F)c2c1cc(Cl)c(NC(=O)NCCN1CCOCC1)c2Cl [Example 6, 1-[6,8-dichloro-5-(o-fluorophenyl)-2,3-dihydro-1-methyl-2-oxo-1H-1,4-benzodiazepin-7-yl]-3-(2-morpholinoethyl)urea]
(K+) potassium excretion in %, based on control animals [1]: 91% | (Na+) sodium excretion in %, based on control animals [1]: 254% | Volume (urine volume) in %, based on control animals [1]: 183% | LD50 [2]: 5000 mg/kg

C[C@]12CCC(=O)C=C1CC[C@@H]1[C@@H]2[C@@H](O)C[C@]2(C=O)[C@@H](C(=O)CO)CC[C@@H]12 [aldosterone, reference compound]
excreted urine volume after aldosterone alone [1, 3]: reduction of the excreted urine volume | potassium excretion after aldosterone alone [1, 3]: increased potassium excretion | sodium excretion after aldosterone alone [1, 3]: pronounced reduction of the sodium excretion
